Where a name gives a salt, the structure may show the parent alone.

For data set [1], the target named is T1, DPP-IV enzyme (solubilized crude extractum from CaCo/Tc-7 cells) (Homo sapiens, UniProt P27487).
T1 construct: solubilized crude extractum from CaCo/Tc-7 cells; endogenous in cells; host or cells: CaCo/Tc-7 cells (solubilized crude extract)
Briefly: DPP-IV enzyme inhibitory activity, fluorometric H-Gly-Pro-AMC assay. It counts as biochemical. The settings on record: H-Gly-Pro-AMC substrate 250 μM final; 60 min preincubation at 37° C.; 30 min reaction at 37° C.; Tris-HCl pH=7.5. As for the experimental part: DPP-IV enzyme inhibitory activties of the compounds with the general formula (I) were determined by the following method: […]
Applied Conditions of the Assay:
The reaction of the DPP-IV enzyme and the H-Gly-Pro-AMC substrate is recorded by the liberation of AMC (7-amino-4-methylcoumarin) at 37° C. in 100 mM Tris-HCl, pH=7.5 (assay buffer). Standard curve of AMC is linear up to 31.25 μM concentration, therefore we used the relative fluorescence unit (RFU) of the AMC formed. It is detected using 360 nm excitation and 465 emmission filters (integration time 30 μs, Gain 25, No. of Flashes 50) by Tecan Spectrofluor Plus plate reader. Under these conditions enzyme reaction is linear for at least 30 min, and the enzyme dependence is linear up to 2.5 μg protein (up to 700 RFU). Using 1-0.8 μg of extracted protein Km for H-Gly-Pro-AMC is 50 μM. Higher than 500 μM substrate concentration caused fluorescent detection problems (inner filter effect) that can be solved by dilution of the samples.
The assay is designed to detect as efficiently as possible the active inhibitors using a 60 min preincubation time at 37° C. The assay is conducted by adding 0.8-1 μg protein extract in 10 μl enzyme sulution (using assay buffer: 100 mM Tris-HCl, pH=7.5) to the wells containing the test compounds in 10 μl volume and the 55 μl assay buffer (65 μl assay buffer in the case of controlls). After the preincubation period, the reaction is started by the addition of 25 μlmM H-Gly-Pro-AMC substrate solution (250 μM final concentration). The final test volume is 100 μl and the test solution contains 1% DMSO coming from the test compounds solution. Reaction time is 30 min at 37° C., and the reaction is stopped by adding 300 μl 1M Na-acetate buffer, pH=4.2. The fluorescence (RFU) of AMC formed is detected using 360 nm excitation and 465 emission filters in Tecan spectrofluor Plus plate reader (30 μs integration time, Gain 25 No. of Flashes 50). Inhibition % are calculated using the RFU of control and RFU of blank.

T1 sequence (P27487 whole entry): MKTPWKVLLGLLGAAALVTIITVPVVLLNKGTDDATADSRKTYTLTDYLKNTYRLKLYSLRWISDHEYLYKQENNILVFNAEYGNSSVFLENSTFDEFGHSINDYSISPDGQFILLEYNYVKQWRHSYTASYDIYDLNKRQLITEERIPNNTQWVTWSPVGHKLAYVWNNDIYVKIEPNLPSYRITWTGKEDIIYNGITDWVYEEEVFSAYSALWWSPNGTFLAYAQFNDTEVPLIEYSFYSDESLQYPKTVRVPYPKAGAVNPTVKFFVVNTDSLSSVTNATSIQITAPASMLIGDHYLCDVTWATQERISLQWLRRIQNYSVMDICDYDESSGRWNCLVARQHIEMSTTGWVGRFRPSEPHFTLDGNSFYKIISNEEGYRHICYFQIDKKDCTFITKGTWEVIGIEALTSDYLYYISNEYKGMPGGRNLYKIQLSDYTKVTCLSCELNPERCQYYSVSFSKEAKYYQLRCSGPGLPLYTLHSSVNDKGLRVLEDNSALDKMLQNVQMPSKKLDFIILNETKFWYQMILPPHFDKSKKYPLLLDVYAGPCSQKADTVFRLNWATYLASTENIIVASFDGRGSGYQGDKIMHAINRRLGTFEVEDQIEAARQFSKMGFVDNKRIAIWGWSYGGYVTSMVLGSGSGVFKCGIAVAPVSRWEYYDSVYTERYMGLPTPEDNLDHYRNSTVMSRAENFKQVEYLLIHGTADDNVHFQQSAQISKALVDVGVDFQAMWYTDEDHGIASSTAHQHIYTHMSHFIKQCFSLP

A word on the melting point: it is the temperature, or range, at which the solid turns liquid. In turn, `N#C[C@@H]1CCCN1C(=O)CNC1C2CCC1CN(c1ncccn1)C2` (stereo partly drawn) (as salt: hydrochloride) [Example 40, (2S)-1-[N-(3-pyrimidin-2-yl-3-azabicyclo[3.2.1]oct-8-yl)glycyl]pyrrolidine-2-carbonitrile] registered a melting point of 149 to 152 °C.

As a reminder, the IC50 is the concentration at which inhibition is half-maximal. Low values mean greater potency in that assay, high ones weaker potency in that assay. With `N#C[C@H]1COCN1C(=O)CNC12CC3CC(C1)CC(Nc1ncccn1)(C3)C2` [Example 9, (4S)-3-{N-[3-(pyrimidin-2-ylamino)-1-adamantyl]glycyl}-1,3-oxazolidine-4-carbonitrile], the IC50 in data set [1] turned out to be 21 nM.

As for `N#C[C@@H]1CCCN1C(=O)CNC1C2CCC1CN(c1ncccn1)C2` (stereo partly drawn) [Example 40, (2S)-1-[N-(3-pyrimidin-2-yl-3-azabicyclo[3.2.1]oct-8-yl)glycyl]pyrrolidine-2-carbonitrile], the IC50 in data set [1] was found to be 30 nM.

Regarding `CC1(NCC(=O)N2CC(F)(F)C[C@H]2C#N)CC2CCC(C1)N2c1ncccn1.Cl.Cl` (stereo partly drawn), the melting point was in the range of 169 to 172 °C.

In the case of `N#C[C@H]1COCN1C(=O)CNC12CC3CC(C1)CC(Nc1ncccn1)(C3)C2` (as salt: hydrochloride) [Example 9, (4S)-3-{N-[3-(pyrimidin-2-ylamino)-1-adamantyl]glycyl}-1,3-oxazolidine-4-carbonitrile], the melting point lay in the range of 205 to 207 °C.

For `N#Cc1ccc(CNC23CC4CC(CC(NCC(=O)N5CC(F)(F)C[C@H]5C#N)(C4)C2)C3)cc1` (as salt: hydrochloride) [Example 27, (2S)-1-(N-{3-[(4-cyanobenzyl)amino]-1-adamantyl}glycyl)-4,4-difluoropyrrolidine-2-carbonitrile], the melting point is 226 to 231 °C.

In turn, `N#C[C@@H]1CC(F)(F)CN1C(=O)CNC1C2CCC1CN(c1ncccn1)C2` (stereo partly drawn) showed a melting point of 50 to 52 °C.

Regarding `N#Cc1ccc(CNC23CC4CC(CC(NCC(=O)N5CC(F)(F)C[C@H]5C#N)(C4)C2)C3)cc1` [Example 27, (2S)-1-(N-{3-[(4-cyanobenzyl)amino]-1-adamantyl}glycyl)-4,4-difluoropyrrolidine-2-carbonitrile], in data set [1], the IC50 came to 16 nM.

`Cl.Cl.N#C[C@@H]1CC(F)(F)CN1C(=O)CNC1C2CCC1CN(c1ncccn1)C2` (stereo partly drawn) returned a melting point above 300 °C.

The values above are taken from US7652021B2, “Compounds useful for DPP-IV enzyme inhibition” (Sanofi-Aventis, priority 2003, dated 2010).
